“And” between values parts separate entries of the source, which are not always exact repeats. Identical values can stand only once. Like-named read-outs stand apart in the source and are kept apart here.

The target of data set [1] is T1, P-gp (Homo sapiens, UniProt P08183).
T1 construct: endogenous in cells
The data set can be described thus: Rhodamine 123 efflux test (P-gp functional activity) in HBL-100/Dox cells. In kind it is cell-based. The following applies: Rh123 efflux, 60 min. As for the experimental part: The functional activity of P-gp was evaluated using the previously described method. […] After incubation, the cells were washed twice and divided into several fractions (2.5 × 10^5 cells per point). One fraction was incubated in a pure medium, and the other one was incubated with MK (2.0 μM) added. […] Cell fluorescence was evaluated on CytoFlex S flow cytometer (Beckman Coulter, Brea, CA, USA). The results were analyzed using FlowJo software (ver. X 10.0.7r2, FlowJo Software, San Jose, CA, USA) and were represented as geometric mean fluorescence intensity (gMFI) and MAF coefficient, which were calculated using the following formula: MAF = (Mean (inh.) − Mean (free))/Mean (inh.), where MAF is the MDR activity functional, mean (free) is the mean value of cell fluorescence without inhibitor, and mean (inh.) is the mean value for cell fluorescence with inhibitor.

The test system of data set [2] is HBL-100/Dox. The data set can be described thus: MTT cell viability assay, HBL-100/Dox. The class given is cell-based, human. As for the experimental part: (§1) The cells were cultured in a humidified CO2 incubator (model 460-CE; Thermo Fisher Scientific, Waltham, MA, USA) at +37 °C and 5% CO2.
(§2) The percentage of the viable cells was calculated according to the following equation: cell viability (%) = 100 × (mean absorbance in the treatment group/mean absorbance in the control group). The results were expressed pictorially using Prism 6.0 (GraphPad Software, Boston, MA, USA).

In data set [3] the test system is HBL-100/Dox cells. The data set can be described thus: Combined action of compounds, MTT assay on HBL-100/Dox cells. The class given is cell-based, human. The text has this: The results were expressed pictorially using Prism 6.0 (GraphPad Software, Boston, MA, USA).
Data set [4] deals with HBL-100/Dox cells. The data set can be described thus: Annexin V-FITC/PI assay, HBL-100/Dox. The note with it: 16 h. The class given is cell-based, human. The protocol: Briefly, after exposing the cells to the tested and control compounds for 16 h, the cells were detached with accutase (HiMedia Laboratories, Maharashtra, India) and washed with cold PBS. Then, the cells were re-suspended in 100 μL of 1 × Binding Buffer at concentration 1 × 10^6 cells/mL and incubated with 5 μL Annexin V-FITC and 5 μL propidium iodide (PI) for 15 min at room temperature in darkness. After incubation, 400 μL of 1 × Binding Buffer was added to each tube. The samples were analyzed by flow cytometry (CytoFlex S, Beckman Coulter, Brea, CA, USA) within 1 h of staining, and the findings were analyzed using a trial version of the Kaluza software (Beckman Coulter, Brea, CA, USA).

The test system of data set [5] is HBL-100. The data set can be described thus: MTT cell viability assay, HBL-100. In kind it is cell-based, human. The following applies: for IC50: Homo sapiens. As for the experimental part:
as §1, §2

Data set [6] has as its system HBL-100/Dox cells. The data set can be described thus: ROS by H2DCFDA fluorescent staining, HBL-100/Dox. The class given is cell-based, human. The note with it: MK 1.8 μM, 4 h. As for the experimental part:
The DNA marker, termed Hoechst 33342 Ready Flow Reagent, was used as a stock solution (Invitrogen, ThermoFisher Scientific, USA). The mitochondrial marker, LumiTracker Mito TMRE (tetramethylrhodamine, ethyl ester; Lumiprobe, Moscow, Russia), was dissolved in DMSO as 1.0 mM stock solution. The marker of reactive oxygen species, H2DCFDA (Lumiprobe, Moscow, Russia), was dissolved in DMSO as 100.0 μM stock solution. After incubation, the cells were incubated with FBS-free culture medium containing the dye mixture of Hoechst 33342 (final concentration 1.0 μM) and LumiTracker Mito TMRE (final concentration 1.0 μM), or H2DCFDA dye taken alone (final concentration 1.0 μM), for 30 min at 37 °C in darkness. Fluorescence, at 420 nm (Hoechst 33342), at 510 nm (TMRE), and at 575 nm (H2DCFDA), of the test cultures (including controls) was analyzed immediately using a fluorescence microscope CKX 53 (Olympus, Tokyo, Japan). The TMRE fluorescence intensity was quantified using Fiji (ImageJ).

The subject of data set [7] is Active Caspase-3 in HBL-100 cells. Kind of data set: Flow cytometric analysis of active caspase-3, HBL-100. In kind it is cell-based, human. The note with it: 24 h. The protocol:
The cells were detached with accutase (HiMedia Laboratories, Maharashtra, India) and then fixed with 70% ice cold ethanol followed by overnight incubation at 4 °C. The cells were washed twice with PBS, permeabilized using 0.1% Triton X-100 in PBS solution, and subsequently stained with 5 μL of the BD Horizon™ BV605 Rabbit Anti-Active Caspase-3 antibody (BD Biosciences, Franklin Lakes, NJ, USA). The cells were then washed, resuspended in PBS, and analyzed using a CytoFlex S flow cytometer (Beckman Coulter, Brea, CA, USA). Cell fluorescence was evaluated on a CytoFlex S flow cytometer (Beckman Coulter, Brea, CA, USA). The results were analyzed using FlowJo software (ver. X 10.0.7r2, FlowJo Software, San Jose, CA, USA) and represented as geometric mean fluorescence intensity (gMFI).

T1 sequence (P08183 whole entry): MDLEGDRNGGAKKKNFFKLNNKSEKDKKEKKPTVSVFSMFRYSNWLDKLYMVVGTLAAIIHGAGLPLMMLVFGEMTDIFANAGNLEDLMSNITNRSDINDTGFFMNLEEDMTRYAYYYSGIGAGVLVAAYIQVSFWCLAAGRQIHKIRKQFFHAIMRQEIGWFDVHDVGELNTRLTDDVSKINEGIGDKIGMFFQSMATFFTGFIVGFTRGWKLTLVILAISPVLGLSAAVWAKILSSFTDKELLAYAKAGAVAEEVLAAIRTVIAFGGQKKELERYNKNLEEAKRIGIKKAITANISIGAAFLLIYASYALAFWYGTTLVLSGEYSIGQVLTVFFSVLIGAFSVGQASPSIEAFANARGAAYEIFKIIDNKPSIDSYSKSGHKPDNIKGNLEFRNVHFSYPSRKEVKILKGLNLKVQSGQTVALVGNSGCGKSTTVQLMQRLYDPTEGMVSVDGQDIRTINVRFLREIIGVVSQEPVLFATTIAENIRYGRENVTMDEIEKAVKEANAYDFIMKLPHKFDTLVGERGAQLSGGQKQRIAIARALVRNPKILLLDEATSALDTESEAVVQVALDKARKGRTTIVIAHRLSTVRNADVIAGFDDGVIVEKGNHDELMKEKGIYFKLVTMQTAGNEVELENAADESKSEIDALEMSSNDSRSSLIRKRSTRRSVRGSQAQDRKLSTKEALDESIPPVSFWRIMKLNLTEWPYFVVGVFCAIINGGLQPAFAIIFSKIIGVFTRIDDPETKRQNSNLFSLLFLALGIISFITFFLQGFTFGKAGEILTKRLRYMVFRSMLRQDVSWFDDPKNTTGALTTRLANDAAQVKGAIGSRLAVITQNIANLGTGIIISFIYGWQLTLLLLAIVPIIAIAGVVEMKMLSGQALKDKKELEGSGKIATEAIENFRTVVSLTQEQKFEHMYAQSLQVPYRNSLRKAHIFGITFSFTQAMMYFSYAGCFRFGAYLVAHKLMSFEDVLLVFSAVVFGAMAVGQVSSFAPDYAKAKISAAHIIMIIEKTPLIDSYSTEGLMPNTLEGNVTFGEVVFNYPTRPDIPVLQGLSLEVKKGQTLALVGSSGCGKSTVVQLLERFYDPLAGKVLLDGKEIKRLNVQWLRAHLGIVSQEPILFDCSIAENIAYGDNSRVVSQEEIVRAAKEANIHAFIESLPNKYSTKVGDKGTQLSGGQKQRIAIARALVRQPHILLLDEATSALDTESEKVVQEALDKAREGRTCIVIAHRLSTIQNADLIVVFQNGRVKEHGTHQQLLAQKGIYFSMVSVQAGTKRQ

Turning to `COC(=O)[C@]12CC[C@@H](C(C)C)[C@@H]1[C@H]1CC[C@@H]3[C@@](C)(CCC#N)[C@H](C(=O)C(Br)Br)CC[C@@]3(C)[C@]1(C)CC2` [compound 31, 2-Cyano-24,24-dibromo-4-oxo-3,4-seco-3,23-dinorlupan-28-oic acid methyl ester], the “P-gp inhibitory activity” value in data set [1] is “extremely low P-gp inhibitory activity”. In addition, the “MAF (MDR activity functional)” value in data set [1] (MK 2 μM, verapamil 30 μM, listed as MK) is 0.22±0.1 and 0.22. In addition, the “death of the cells” value in data set [2] (HBL-100/Dox, MK at IC50 dose, after 72 h exposure) is listed as 50%; in data set [5] (HBL-100, MK at IC50 dose, after 72 h exposure) it was 50%. Also, the IC50 in data set [2] (Homo sapiens, HBL-100, 72 h, read-out: IC50 Values (Mean ± SD)) came out at 1800 ± 100 nM; in data set [5] (HBL-100, MTT, 72 h of treatment, read-out: IC50 Values (Mean ± SD)), 1000 ± 100 nM; in data set [5] (Table S1, HBL-100, read-out: IC50 (mean ± SD)), 990 ± 1 nM. Also, the entries for the “Selectivity index (SI)” value in data set [2] (ratio of IC50 values healthy (HEK293) / HBL-100/Dox) and in data set [5] (ratio of IC50 values healthy (HEK293) / HBL-100) were 6.39 and 11.50, respectively. Besides, the “number of living cells, compound vs its combination with verapamil” value in data set [3] (72 h, 30 μM verapamil) is on record as “remained unchanged”. Moreover, the “potentiation in the effectiveness of Dox” value in data set [3] (MK 0.6 μM combined with Dox) is “no potentiation”. Besides, the Dead cells in data set [4] (dose 2xIC50) is 4.59±0.45%; in data set [4] (dose IC50) it was 2.52±0.08%. Further, the Viable cells in data set [4] (dose 2xIC50) is 78.69 ± 1.29%; in data set [4] (dose IC50) it was 87.82 ± 0.44%. The Early apoptotic cells was 5.50±0.44% in data set [4] (dose 2xIC50, listed as MK); 5.04 ± 0.51% and 5.04±0.52% in data set [4] (dose IC50, listed as MK). In addition, the Late apoptotic cells in data set [4] (dose 2xIC50, listed as MK) was 10.94 ± 0.81% and 10.94±0.82%; in data set [4] (dose IC50, listed as MK), 4.74 ± 0.44% and 4.74±0.04%. Also, the “ROS generation, H2DCFDA staining” value in data set [6] is given as “significantly heightened the ROS generation”. Also, the “gMIF, Active Caspase-3” value is listed as 11048±278 in data set [7] (dose 2×IC50) and 6755±301 in data set [7] (dose IC50).

These data come from PMC10298530, “Synthesis and Anticancer Activity of A-Ring-Modified Derivatives of Dihydrobetulin” (International Journal of Molecular Sciences, 2023).
